We go through 28 compounds from US7285572B2, “CaSR antagonist” (Japan Tobacco Inc., priority 2003, dated 2007).

In one series the test system is PTH secretion. Briefly: PTH secretagogue action, oral administration to fasted male SD rats, serum PTH by ELISA. The format is in vivo, rat. The following applies: 3 mg/kg oral, test compound administration group. As for the experimental part:
The test compound was orally administered to 5 to 9-week-old male SD rats (Charles River Japan, Inc.) fasted for 20 hr, using a solvent (0.5% aqueous methyl cellulose solution) at a dose of 3 mg/5 ml/kg or 30 mg/5 ml/kg. A solvent alone was orally administered to the control group at a dose of 5 ml/kg. The blood was drawn from the tail vein 15 min, 30 min, 60 min and 120 min after the administration of the test compound, and serum was obtained. The serum PTH concentration was measured using rat PTH ELISA kit (Amersham Biosciences).
`C[C@@H](OC[C@H](O)CNC(C)(C)Cc1ccc2ccccc2c1)c1ccccc1-c1cccc(CC(=O)O)c1` [Example 4, [2′-[(1R)-1-[(2R)-2-hydroxy-3-[[2-methyl-1-(naphthalen-2-yl)propan-2-yl]amino]propoxy]ethyl]biphenyl-3-yl]acetic acid]: the “serum PTH concentration 15 min later” value is 22.71 ± 2.52 pg/mL, the “serum PTH concentration 30 min later” value is 22.83 ± 2.91 pg/mL, the “serum PTH concentration 60 min later” value was found to be 13.69 ± 2.09 pg/mL and the “serum PTH concentration 120 min later” value was found to be 11.76 ± 1.24 pg/mL.

Take `C[C@@H](OC[C@H](O)CNC(C)(C)Cc1ccc2ccccc2c1)c1ccccc1CCCCC(=O)O` [Example 25]: the “serum PTH concentration 15 min later” value stood at 19.16 ± 4.05 pg/mL and the “serum PTH concentration 30 min later” value was 18.15 ± 3.15 pg/mL.

Staying with this series, now noted: 30 mg/kg oral, test compound administration group.
For `Cc1ccccc1[C@H](OC[C@@H](CNC(C)(C)Cc1ccc2ccccc2c1)OC(=O)/C=C\C(=O)O)C1CC1` [Example 6, (Z)-butenedioic acid mono-[(2R)-1-[(1R)-(cyclopropyl)-(2-methylphenyl)methoxy]-3-[[2-methyl-1-(naphthalen-2-yl)propan-2-yl]amino]propan-2-yl]ester], the “serum PTH concentration 30 min later” value is 14.45 ± 1.45 pg/mL and the “serum PTH concentration 60 min later” value is 13.91 ± 1.62 pg/mL.

A further series deals with T1, human calcium receptor (Homo sapiens, UniProt P41180).
T1 construct: expressed in transfected cells; host or cells: cell strain derived from rat adrenal, co-transfected with luciferase cDNA
T1 sequence (P41180 20-1078): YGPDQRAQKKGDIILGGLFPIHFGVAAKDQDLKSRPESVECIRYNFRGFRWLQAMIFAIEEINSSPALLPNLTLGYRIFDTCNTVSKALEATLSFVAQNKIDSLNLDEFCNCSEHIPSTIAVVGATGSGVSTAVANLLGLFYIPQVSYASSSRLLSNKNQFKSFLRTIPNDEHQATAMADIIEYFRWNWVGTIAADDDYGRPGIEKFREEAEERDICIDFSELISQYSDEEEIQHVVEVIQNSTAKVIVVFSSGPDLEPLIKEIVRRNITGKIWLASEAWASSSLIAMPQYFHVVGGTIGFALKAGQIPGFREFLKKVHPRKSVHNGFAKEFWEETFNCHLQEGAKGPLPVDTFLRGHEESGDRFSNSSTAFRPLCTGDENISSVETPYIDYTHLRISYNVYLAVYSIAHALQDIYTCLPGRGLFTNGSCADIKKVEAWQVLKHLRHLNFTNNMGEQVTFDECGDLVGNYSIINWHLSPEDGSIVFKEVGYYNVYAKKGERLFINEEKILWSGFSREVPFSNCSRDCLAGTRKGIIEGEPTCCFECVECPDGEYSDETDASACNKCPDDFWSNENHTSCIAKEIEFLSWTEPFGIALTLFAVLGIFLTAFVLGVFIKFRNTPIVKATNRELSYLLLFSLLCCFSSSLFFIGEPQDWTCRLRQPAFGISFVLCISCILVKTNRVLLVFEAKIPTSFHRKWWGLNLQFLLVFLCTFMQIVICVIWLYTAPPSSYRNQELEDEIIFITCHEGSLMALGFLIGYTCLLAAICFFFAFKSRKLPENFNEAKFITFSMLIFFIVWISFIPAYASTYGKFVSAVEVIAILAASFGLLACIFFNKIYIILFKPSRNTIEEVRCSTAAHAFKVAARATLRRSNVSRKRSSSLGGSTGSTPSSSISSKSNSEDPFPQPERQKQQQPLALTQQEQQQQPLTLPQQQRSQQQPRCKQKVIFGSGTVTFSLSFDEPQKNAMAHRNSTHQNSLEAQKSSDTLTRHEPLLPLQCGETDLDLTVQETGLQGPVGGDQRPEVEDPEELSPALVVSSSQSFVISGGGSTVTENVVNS
As to the kind of experiment: Evaluation of antagonistic action on calcium receptor using reporter gene (luciferase). The format is cell-based. To be noted: rat adrenal derived cells with luciferase and human calcium receptor cDNA, 5 mM calcium chloride, 4 hrs; read-out: IC50 (concentration showing 50% inhibitory rate of luciferase activity). The method, then: Evaluation of Antagonistic Action on Calcium Receptor Using Reporter Gene
Luciferase cDNA and human calcium receptor cDNA were introduced into a cell strain derived from rat adrenal to transform the cells, and the transformed cells were cultured in a medium (80 μl, F12 medium containing 0.5% dialyzed horse serum and 0.25% dialyzed bovine fetal serum). A dimethyl sulfoxide solution containing a test compound at 0.1-10000 μM was diluted 100-fold with the medium and added to the test compound group at 10 μl per well (final concentration of dimethyl sulfoxide is 0.1%). In the same manner as in test compound group, dimethyl sulfoxide diluted 100-fold with medium was added to a control group and a blank group. Then, 50 mM calcium chloride-containing medium was added to every well except the blank group at 10 μl per well (final concentration is 5 mM). A medium alone was added to the blank group. After culture for 4 hrs, luciferase substrate was added and the luciferase activity was measured with a photoluminometer. The inhibitory rate (%) was calculated from the obtained measured values according to the following formula.
Based on the results, the concentration (IC50) showing 50% inhibitory rate was determined.
In the case of `C[C@@H](OC[C@H](O)CNC(C)(C)Cc1ccc2ccccc2c1)c1ccccc1CCCCCC(=O)O` [Example 2, 6-[2-[(1R)-1-[(2R)-2-hydroxy-3-[[2-methyl-1-(naphthalen-2-yl)propan-2-yl]amino]propoxy]ethyl]phenyl]hexanoic acid], the IC50 was 14 nM.

`CC(C)(Cc1ccc2ccccc2c1)NC[C@@H](O)COC(C1CC1)C1CC1` [Example 3, (2R)-1-dicyclopropylmethoxy-3-[[2-methyl-1-(naphthalen-2-yl)propan-2-yl]amino]propan-2-ol]: the IC50 was 23 nM.

In the case of `C[C@@H](OC[C@H](O)CNC(C)(C)Cc1ccc2ccccc2c1)c1ccccc1-c1cccc(CC(=O)O)c1` [Example 4, [2′-[(1R)-1-[(2R)-2-hydroxy-3-[[2-methyl-1-(naphthalen-2-yl)propan-2-yl]amino]propoxy]ethyl]biphenyl-3-yl]acetic acid], the IC50 is 11 nM.

In the case of `CC(=O)NCc1ccc(-c2ccccc2[C@@H](C)OC[C@H](O)CNC(C)(C)Cc2ccc3ccccc3c2)cc1` [Example 5, N-[[2′-[(1R)-1-[(2R)-2-hydroxy-3-[[2-methyl-1-(naphthalen-2-yl)propan-2-yl]amino]propoxy]ethyl]biphenyl-4-yl]methyl]acetamide], the IC50 was determined as 24 nM.

As to `Cc1ccccc1[C@H](OC[C@@H](CNC(C)(C)Cc1ccc2ccccc2c1)OC(=O)/C=C\C(=O)O)C1CC1` [Example 6, (Z)-butenedioic acid mono-[(2R)-1-[(1R)-(cyclopropyl)-(2-methylphenyl)methoxy]-3-[[2-methyl-1-(naphthalen-2-yl)propan-2-yl]amino]propan-2-yl]ester], the IC50 worked out at 79 nM.

Regarding `CC(OC[C@H](O)CNC(C)(C)Cc1ccc2ccccc2c1)c1ccccc1-c1ccc(-c2nnn[nH]2)cc1` (stereo partly drawn) [Example 7, (R)-3-[[2-methyl-1-(naphthalen-2-yl)propan-2-yl]amino]-1-[1-[4′-(1H-tetrazol-5-yl)biphenyl-2-yl]ethoxy]propan-2-ol], the IC50 was 11 nM.

With `CC(OC(=O)OC1CCCCC1)OC(=O)c1ccc(-c2ccccc2C(C)OC[C@H](O)CNC(C)(C)Cc2ccc3ccccc3c2)cc1` (stereo partly drawn) [Example 8, 1-(cyclohexyloxycarbonyloxy)ethyl 2′-[1-[(2R)-2-hydroxy-3-[[2-methyl-1-(naphthalen-2-yl)propan-2-yl]amino]propoxy]ethyl]biphenyl-4-carboxylate], the IC50 worked out at 21 nM.

Turning to `CC(OC[C@H](O)CNC(C)(C)Cc1ccc2ccccc2c1)c1ccccc1-c1ccc(C(=O)O)s1` (stereo partly drawn) [Example 9, 5-[2-[1-[(2R)-2-hydroxy-3-[[2-methyl-1-(naphthalen-2-yl)propan-2-yl]amino]propoxy]ethyl]phenyl]thiophene-2-carboxylic acid], the IC50 was found to be 14 nM.

Consider `CC(OC[C@H](O)CNC(C)(C)Cc1ccc2ccccc2c1)c1ccccc1C#CC(=O)O` (stereo partly drawn) [Example 10, [2-[1-[(2R)-2-hydroxy-3-[[2-methyl-1-(naphthalen-2-yl)propan-2-yl]amino]propoxy]ethyl]phenyl]propynoic acid], for which the IC50 turned out to be 23 nM.

On to `CCOP(=O)(O)c1ccc(-c2ccccc2[C@@H](C)OC[C@H](O)CNC(C)(C)Cc2ccc3ccccc3c2)cc1` [Example 11, Monoethyl [2′-[(1R)-1-[(2R)-2-hydroxy-3-[[2-methyl-1-(naphthalen-2-yl)propan-2-yl]amino]propoxy]ethyl]biphenyl-4-yl]phosphonate], for which the IC50 was 8 nM.

Take `CCOC(=O)Cc1ccc(-c2ccccc2C(C)OC[C@H](O)CNC(C)(C)Cc2ccc3ccccc3c2)cc1` (stereo partly shown) [Example 13]: the IC50 was determined as 160 nM.

For the compound `CC(OC[C@H](O)CNC(C)(C)Cc1ccc2ccccc2c1)c1ccccc1-c1ccc(CC(=O)O)cc1` (stereo partly shown) [Example 14], the IC50 amounted to 119 nM.

Take `CC(OC[C@H](O)CNC(C)(C)Cc1ccc2ccccc2c1)c1ccccc1-c1ccc(CC(N)=O)cc1` (stereo partly shown) [Example 15]: the IC50 turned out to be 145 nM.

Take `CC(OC[C@H](O)CNC(C)(C)Cc1ccc2ccccc2c1)c1ccccc1-c1ccc(-c2nsc(=O)[nH]2)cc1` (stereo partly shown) [Example 16]: the IC50 worked out at 135 nM.

Regarding `C[C@@H](OC[C@H](O)CNC(C)(C)Cc1ccc2ccccc2c1)c1ccccc1-c1ccc(C(=O)NO)cc1` [Example 17], the IC50 stood at 104 nM.

Consider `CC(OC[C@H](O)CNC(C)(C)Cc1ccc2ccccc2c1)c1ccccc1-c1ccc(-c2nc(=O)o[nH]2)cc1` (stereo partly shown) [Example 19], for which the IC50 turned out to be 18 nM.

`CC(OC[C@H](O)CNC(C)(C)Cc1ccc2ccccc2c1)c1ccccc1-c1ccc(C(N)=O)cc1` (stereo partly shown) [Example 20]: the IC50 worked out at 30 nM.

On to `CCOP(=O)(O)c1ccc(-c2ccccc2C(C)OC[C@H](O)CNC(C)(C)Cc2ccc3ccccc3c2)cc1` (stereo partly shown) [Example 21], for which the IC50 was determined as 15 nM.

`CC(OC[C@H](O)CNC(C)(C)Cc1ccc2ccccc2c1)c1ccccc1OCC(=O)O` (stereo partly shown) [Example 22]: the IC50 stood at 237 nM.

`C[C@@H](OC[C@H](O)CNC(C)(C)Cc1ccc2ccccc2c1)c1ccccc1/C=C/C(=O)O` [Example 23]: the IC50 came out at 16 nM.

As to `C[C@@H](OC[C@H](O)CNC(C)(C)Cc1ccc2ccccc2c1)c1ccccc1OCCCC(=O)O` [Example 24], the IC50 was 246 nM.

As to `C[C@@H](OC[C@H](O)CNC(C)(C)Cc1ccc2ccccc2c1)c1ccccc1CCCCC(=O)O` [Example 25], the IC50 was determined as 18 nM.

As to `CC(OC[C@H](O)CNC(C)(C)Cc1ccc2ccccc2c1)c1ccccc1OCCCCC(=O)O` (stereo partly shown) [Example 26], the IC50 was 190 nM.

As to `C=Cc1ccc(CC(C)(C)NC[C@@H](O)CO[C@H](C)c2ccccc2-c2ccc(C(=O)O)cc2)cc1` [Example 27], the IC50 was 14 nM.

On to `C[C@@H](OC[C@H](O)CNC(C)(C)Cc1ccc2ccccc2c1)c1ccccc1-c1ccc([N+](=O)[O-])cc1` [Example 28], for which the IC50 turned out to be 254 nM.

Regarding `C[C@@H](OC[C@H](O)CNC(C)(C)Cc1ccc2ccccc2c1)c1ccccc1-c1ccc(N)cc1` [Example 29], the IC50 was determined as 55 nM.

Regarding `Cc1ccc(CC(C)(C)NC[C@@H](O)CO[C@H](C)c2ccccc2OCc2ccc(C(=O)O)s2)cc1F` [Example 30], the IC50 turned out to be 183 nM.

For a further series, the system named is PTH release.
Assay: not given
The following applies: rat PTH (1-34) 5 μg/kg, OVX rat; cited from earlier work.
Consider “rat PTH (1-34): rat parathyroid hormone fragment (1-34) administered to OVX rat”, for which the “blood PTH concentration peak in 30 minutes” value was “about 175 pg/ml” and the “time for blood PTH concentration to return to the original level” value was 2 h.
